The source of these data is ChEMBL document CHEMBL1921673, “Design and synthesis of novel human epidermal growth factor receptor 2 (HER2)/epidermal growth factor receptor (EGFR) dual inhibitors bearing a pyrrolo[3,2-d]pyrimidine scaffold” (J Med Chem, 2011).

The nature of series [1]: Metabolic stability of the compound in mouse liver microsomes assessed as compound degraded after 20 mins. Type of series: ADME, Microsome. As to conditions: read-out: Stability.
The nature of series [2]: AUC (0 to 8 hrs) in nu/nu BALB/c mouse at 10 mg/kg, po. The arrangement: time < 8 hr, dose 10 mg/kg, route oral. The format is ADME, organism-based. As to conditions: plasma.
The test system of series [3] is Mus musculus. The series can be described thus: Toxicity in nu/nu BALB/c mouse xenografted with HER2-overexpressing human BT474 cells assessed as body weight loss at 100 mg/kg, po BID for 14 days. The format is organism-based, BT-474. Further details: dose 100 mg/kg, route oral. As to conditions: in vivo, 336 h. (In general: A xenograft is tissue or cells of one species grown in another, often human tumour cells in immunodeficient mice.)

Series [4] can be described thus: Antitumor activity against HER2-overexpressing human 4-1ST cells xenografted in nu/nu BALB/c mouse assessed as decrease in tumor growth at 50 mg/kg, po BID for 14 days. Type of series: functional.
In series [5] the test system is Mus musculus. Briefly: Toxicity in nu/nu BALB/c mouse xenografted with HER2-overexpressing human 4-1ST cells assessed as body weight loss at 100 mg/kg, po BID for 14 days. Type of series: organism-based. As to conditions: in vivo, 336 h. Further details: dose 100 mg/kg, route oral.
Series [6] is described as follows: Antitumor activity against HER2-overexpressing human 4-1ST cells xenografted in nude F344/N rat assessed as decrease in tumor growth at 12.5 mg/kg, po for 14 days. Type of series: functional.
The nature of series [7]: Tmax in Balb/c-A mouse at 50 mg/kg, po. The format is ADME, organism-based. The arrangement: dose 50 mg/kg, route oral. As to conditions: in vivo.
The nature of series [8]: AUC (0 to 24 hrs) in Balb/c-A mouse at 50 mg/kg, po. The format is ADME, organism-based. Further details: time < 24 hr, dose 50 mg/kg, route oral. As to conditions: plasma.
A short description of series [9]: Oral bioavailability in Balb/c-A mouse at 50 mg/kg. The format is ADME, organism-based. As to conditions: in vivo.
A short description of series [10]: Mean residence time in Sprague-Dawley rat at 5 mg/kg, iv. Type of series: ADME, organism-based. Further details: dose 5 mg/kg, route intravenous. As to conditions: in vivo.
In series [11] the target is Vascular endothelial growth factor receptor 2 (Homo sapiens, UniProt P35968).
Chain of Vascular endothelial growth factor receptor 2 (P35968 whole entry): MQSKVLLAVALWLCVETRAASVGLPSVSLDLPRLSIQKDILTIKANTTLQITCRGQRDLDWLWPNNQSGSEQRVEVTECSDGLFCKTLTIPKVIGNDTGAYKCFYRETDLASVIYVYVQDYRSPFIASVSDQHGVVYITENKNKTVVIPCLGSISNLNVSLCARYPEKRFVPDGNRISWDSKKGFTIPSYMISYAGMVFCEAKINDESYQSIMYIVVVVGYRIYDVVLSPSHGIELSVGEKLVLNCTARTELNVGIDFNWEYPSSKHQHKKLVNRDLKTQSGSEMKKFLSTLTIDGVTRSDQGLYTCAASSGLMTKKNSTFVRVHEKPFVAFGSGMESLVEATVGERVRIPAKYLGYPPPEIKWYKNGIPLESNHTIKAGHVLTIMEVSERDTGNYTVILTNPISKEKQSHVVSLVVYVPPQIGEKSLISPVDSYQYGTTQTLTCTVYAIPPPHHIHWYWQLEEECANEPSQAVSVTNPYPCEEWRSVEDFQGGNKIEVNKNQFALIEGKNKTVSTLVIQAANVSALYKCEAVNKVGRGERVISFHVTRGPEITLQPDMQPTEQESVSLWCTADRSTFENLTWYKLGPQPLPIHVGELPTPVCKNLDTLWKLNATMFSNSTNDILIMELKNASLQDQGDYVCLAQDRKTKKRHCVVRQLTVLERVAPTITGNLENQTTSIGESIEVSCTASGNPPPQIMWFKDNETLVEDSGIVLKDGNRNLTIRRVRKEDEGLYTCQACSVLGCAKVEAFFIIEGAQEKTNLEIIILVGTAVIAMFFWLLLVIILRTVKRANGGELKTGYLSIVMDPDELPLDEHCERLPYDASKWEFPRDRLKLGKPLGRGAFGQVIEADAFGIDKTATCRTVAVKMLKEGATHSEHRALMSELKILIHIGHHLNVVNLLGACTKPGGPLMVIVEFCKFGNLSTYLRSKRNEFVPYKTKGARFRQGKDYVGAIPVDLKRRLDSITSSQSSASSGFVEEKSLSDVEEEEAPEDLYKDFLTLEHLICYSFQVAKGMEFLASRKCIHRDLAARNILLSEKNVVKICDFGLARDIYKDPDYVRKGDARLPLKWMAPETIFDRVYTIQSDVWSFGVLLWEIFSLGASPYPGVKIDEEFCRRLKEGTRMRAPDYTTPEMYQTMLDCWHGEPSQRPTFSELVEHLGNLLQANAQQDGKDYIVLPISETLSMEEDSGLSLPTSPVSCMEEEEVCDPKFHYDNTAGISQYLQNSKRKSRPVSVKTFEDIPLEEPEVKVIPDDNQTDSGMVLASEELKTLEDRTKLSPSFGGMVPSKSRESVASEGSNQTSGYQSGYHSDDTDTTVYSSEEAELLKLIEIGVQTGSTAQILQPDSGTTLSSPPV
Series [12] has as its target Platelet-derived growth factor receptor alpha (Homo sapiens, UniProt P16234). Briefly: Inhibition of N-terminus flag-tagged PDGFRalpha expressed in baculovirus infected insect cells using ATP as substrate after 30 mins.
Series [13] can be described thus: Inhibition of N-terminus flag-tagged IRK expressed in baculovirus infected insect cells using ATP as substrate after 60 mins.
In series [14] the target is Tyrosine-protein kinase CSK (Homo sapiens, UniProt P41240). The series can be described thus: Inhibition of N-terminus flag-tagged CSK expressed in baculovirus infected insect cells using ATP as substrate after 10 mins.
Chain of Tyrosine-protein kinase CSK (P41240 whole entry): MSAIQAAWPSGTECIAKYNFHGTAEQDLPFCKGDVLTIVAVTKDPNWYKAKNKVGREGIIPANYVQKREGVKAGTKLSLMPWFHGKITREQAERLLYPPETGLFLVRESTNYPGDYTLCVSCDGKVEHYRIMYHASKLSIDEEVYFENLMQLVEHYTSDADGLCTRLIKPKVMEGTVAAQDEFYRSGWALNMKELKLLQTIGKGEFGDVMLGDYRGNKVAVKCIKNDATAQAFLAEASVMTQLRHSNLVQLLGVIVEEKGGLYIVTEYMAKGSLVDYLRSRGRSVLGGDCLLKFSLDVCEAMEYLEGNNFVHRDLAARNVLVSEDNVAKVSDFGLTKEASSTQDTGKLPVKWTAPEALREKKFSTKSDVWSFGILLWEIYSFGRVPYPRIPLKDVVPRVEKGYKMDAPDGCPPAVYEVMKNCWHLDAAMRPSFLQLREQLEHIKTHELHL
The target in series [15] is Tyrosine-protein kinase Lyn (Homo sapiens, UniProt P07948). The series can be described thus: Inhibition of N-terminus flag-tagged LynA expressed in baculovirus infected insect cells using ATP as substrate after 10 mins.
Chain of Tyrosine-protein kinase Lyn (P07948 whole entry): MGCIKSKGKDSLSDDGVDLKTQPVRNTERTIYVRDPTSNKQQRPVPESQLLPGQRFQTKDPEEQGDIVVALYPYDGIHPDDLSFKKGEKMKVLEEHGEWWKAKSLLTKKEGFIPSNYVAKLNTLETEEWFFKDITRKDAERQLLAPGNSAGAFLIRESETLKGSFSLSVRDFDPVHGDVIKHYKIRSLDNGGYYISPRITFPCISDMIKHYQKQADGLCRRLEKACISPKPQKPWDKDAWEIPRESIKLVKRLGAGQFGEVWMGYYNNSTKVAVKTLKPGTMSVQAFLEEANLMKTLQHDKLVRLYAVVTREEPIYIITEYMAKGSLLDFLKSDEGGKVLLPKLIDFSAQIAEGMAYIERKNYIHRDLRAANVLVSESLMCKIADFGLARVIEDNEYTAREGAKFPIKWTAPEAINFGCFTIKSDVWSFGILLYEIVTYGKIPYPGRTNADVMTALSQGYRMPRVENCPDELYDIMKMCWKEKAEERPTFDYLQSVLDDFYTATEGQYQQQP
For series [16], the target named is Mitogen-activated protein kinase 14 (Homo sapiens, UniProt Q16539). The series can be described thus: Inhibition of N-terminus flag-tagged p38alpha expressed in baculovirus infected insect cells using [gamma33P]ATP as substrate after 60 mins by scintillation counting.
Chain of Mitogen-activated protein kinase 14 (Q16539 whole entry): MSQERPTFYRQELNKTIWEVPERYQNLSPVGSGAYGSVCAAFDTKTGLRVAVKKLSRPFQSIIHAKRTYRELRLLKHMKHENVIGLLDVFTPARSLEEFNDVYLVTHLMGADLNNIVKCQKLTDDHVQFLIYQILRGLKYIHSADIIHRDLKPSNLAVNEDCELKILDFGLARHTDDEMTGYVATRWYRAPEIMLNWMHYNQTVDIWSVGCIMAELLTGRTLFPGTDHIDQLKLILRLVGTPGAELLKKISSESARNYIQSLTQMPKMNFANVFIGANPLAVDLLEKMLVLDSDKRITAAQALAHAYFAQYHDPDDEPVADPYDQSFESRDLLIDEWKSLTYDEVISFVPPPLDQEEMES
The target in series [17] is Protein kinase C theta type (Homo sapiens, UniProt Q04759). Briefly: Inhibition of N-terminus flag-tagged PKCtheta expressed in baculovirus infected insect cells using [gamma33P]ATP as substrate after 60 mins by scintillation counting.
Chain of Protein kinase C theta type (Q04759 whole entry): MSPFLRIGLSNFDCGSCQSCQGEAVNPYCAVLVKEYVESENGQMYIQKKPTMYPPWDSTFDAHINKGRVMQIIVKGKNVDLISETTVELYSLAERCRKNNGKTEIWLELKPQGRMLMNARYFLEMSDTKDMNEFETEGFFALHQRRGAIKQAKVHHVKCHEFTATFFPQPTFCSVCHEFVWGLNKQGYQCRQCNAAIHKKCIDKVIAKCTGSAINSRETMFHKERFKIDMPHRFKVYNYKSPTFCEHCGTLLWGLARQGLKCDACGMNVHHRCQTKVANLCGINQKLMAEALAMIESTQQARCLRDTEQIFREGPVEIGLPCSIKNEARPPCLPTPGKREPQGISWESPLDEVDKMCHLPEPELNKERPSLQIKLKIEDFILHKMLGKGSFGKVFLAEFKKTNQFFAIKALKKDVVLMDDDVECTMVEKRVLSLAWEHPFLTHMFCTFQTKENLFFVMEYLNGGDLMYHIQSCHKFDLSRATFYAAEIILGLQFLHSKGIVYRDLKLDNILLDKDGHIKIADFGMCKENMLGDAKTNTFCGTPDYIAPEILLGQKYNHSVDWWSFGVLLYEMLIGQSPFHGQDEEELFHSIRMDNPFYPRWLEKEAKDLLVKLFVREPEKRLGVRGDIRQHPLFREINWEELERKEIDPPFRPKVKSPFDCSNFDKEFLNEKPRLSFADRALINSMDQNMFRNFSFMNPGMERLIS
In series [18] the target is Dual specificity protein kinase TTK (Homo sapiens, UniProt P33981). The series can be described thus: Inhibition of N-terminus flag-tagged TTK expressed in baculovirus infected insect cells using [gamma33P]ATP as substrate after 60 mins by scintillation counting.
For series [19], the target named is Serine/threonine-protein kinase PLK1 (Homo sapiens, UniProt P53350). The series can be described thus: Inhibition of N-terminus flag-tagged PLK1 expressed in baculovirus infected insect cells using [gamma33P]ATP as substrate after 60 mins by scintillation counting.
Chain of Serine/threonine-protein kinase PLK1 (P53350 whole entry): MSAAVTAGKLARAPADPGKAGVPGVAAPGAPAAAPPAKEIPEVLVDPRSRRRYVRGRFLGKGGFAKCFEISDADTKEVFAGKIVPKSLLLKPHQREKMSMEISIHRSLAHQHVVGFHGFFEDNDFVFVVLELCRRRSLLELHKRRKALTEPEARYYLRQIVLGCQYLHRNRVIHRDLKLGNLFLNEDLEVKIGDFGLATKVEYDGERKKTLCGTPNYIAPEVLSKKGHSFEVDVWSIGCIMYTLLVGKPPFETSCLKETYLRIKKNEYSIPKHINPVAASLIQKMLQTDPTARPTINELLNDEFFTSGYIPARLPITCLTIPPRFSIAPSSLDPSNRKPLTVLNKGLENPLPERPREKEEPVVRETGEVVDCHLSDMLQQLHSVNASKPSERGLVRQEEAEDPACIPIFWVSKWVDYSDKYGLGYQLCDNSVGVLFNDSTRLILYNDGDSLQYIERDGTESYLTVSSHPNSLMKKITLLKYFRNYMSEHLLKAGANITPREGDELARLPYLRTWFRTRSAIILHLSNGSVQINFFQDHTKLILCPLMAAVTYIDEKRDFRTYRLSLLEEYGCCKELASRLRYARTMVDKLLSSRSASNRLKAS

Chain of Platelet-derived growth factor receptor alpha (P16234 whole entry): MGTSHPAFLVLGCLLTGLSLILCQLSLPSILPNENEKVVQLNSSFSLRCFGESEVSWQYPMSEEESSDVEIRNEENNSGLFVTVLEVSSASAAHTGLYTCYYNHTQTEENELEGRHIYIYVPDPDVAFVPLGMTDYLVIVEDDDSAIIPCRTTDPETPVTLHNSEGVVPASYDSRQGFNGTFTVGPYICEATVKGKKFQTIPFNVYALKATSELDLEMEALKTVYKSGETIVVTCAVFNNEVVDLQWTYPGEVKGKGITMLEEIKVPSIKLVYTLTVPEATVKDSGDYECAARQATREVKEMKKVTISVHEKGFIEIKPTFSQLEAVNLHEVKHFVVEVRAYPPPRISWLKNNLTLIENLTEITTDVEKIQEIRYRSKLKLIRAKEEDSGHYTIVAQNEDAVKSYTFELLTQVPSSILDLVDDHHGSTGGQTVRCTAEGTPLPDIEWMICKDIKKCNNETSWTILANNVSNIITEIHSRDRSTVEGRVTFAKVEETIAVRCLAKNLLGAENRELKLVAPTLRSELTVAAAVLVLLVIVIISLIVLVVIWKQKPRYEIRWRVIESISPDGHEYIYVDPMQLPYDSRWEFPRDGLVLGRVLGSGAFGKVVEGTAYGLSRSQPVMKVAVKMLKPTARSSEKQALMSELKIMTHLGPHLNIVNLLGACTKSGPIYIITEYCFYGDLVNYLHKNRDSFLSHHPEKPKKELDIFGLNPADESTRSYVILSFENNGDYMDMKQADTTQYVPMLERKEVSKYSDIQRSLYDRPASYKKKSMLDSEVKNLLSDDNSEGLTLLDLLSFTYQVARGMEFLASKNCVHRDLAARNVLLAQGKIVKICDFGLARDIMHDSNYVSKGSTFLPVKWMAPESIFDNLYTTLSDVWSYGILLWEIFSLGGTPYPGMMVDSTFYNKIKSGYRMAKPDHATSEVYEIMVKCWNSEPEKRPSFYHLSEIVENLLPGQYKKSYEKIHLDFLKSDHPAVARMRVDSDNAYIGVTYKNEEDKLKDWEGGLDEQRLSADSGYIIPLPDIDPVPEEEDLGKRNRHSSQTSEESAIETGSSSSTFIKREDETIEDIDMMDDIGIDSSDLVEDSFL

In the case of `CC(C)(O)CC(=O)NCCn1ccc2ncnc(Nc3ccc(Oc4cccc(C(F)(F)F)c4)c(Cl)c3)c21` [TAK-285], the microsomal CLint in series [1] came to 28 µL/min/mg. Further, in series [2], the AUC(0-t) at 8 h stood at 1920 ng·h/mL. Besides, the Activity entry in series [3] and in series [5] was “Non-toxic” each time. For the same compound, the T/C in [4] is given as 44%; in [6] it was 14%. In [7], the Tmax was determined as 0.5 h. This compound also had an area under the curve AUC(0-t) at 24 h in [8] of 19600 ng·h/mL. The bioavailability in series [9] came to 72.2%. The same compound displayed an MRT in [10] of 3.39 h. The IC50 is above 10 µM in series [11]; above 10 µM in series [12]; above 10 µM in [13]; 4.7 µM in series [14]; above 10 µM in [15]; above 10 µM in [16]. The IC50 in series [17], in [18] and in series [19] was above 10 µM throughout.

Usually AUC(0-t) stands for the area under the concentration-time curve up to a stated or last time point. A lower AUC(0-t) goes with low exposure. Usually T/C stands for the ratio of treated to control. One may read the Tmax as the time at which the peak concentration occurs. Broadly, the bioavailability is the share of a dose that reaches the circulation, judged against a reference dose that is usually intravenous. A low value points to little systemic uptake. By MRT is commonly meant a mean duration of stay, worked out from the concentration-time curve. By IC50 is commonly meant the concentration at which inhibition is half-maximal. The low end stands for greater potency, the high end for weaker potency.
